± gives the expanded uncertainty stated by the source.
What was measured:
[1] = Crystal; DTA
[2] = Molar enthalpy of transition or fusion; settings: Crystal; DSC

Compound: CC(=O)S[C@@H]1CC2=CC(=O)CC[C@]2(C)[C@H]2CC[C@@]3(C)[C@@H](CC[C@@]34CCC(=O)O4)[C@H]12 [spironolactone]
- Normal melting temperature [1]: 208.42 ± 1.1 °C
- Molar enthalpy of transition or fusion [2]: 20.8 ± 1.3 kJ/mol

Source: the NIST ThermoML archive (doi:10.1016/j.jct.2014.07.011)
